The results in this text go back to patent US11530226B2, “Azepane inhibitors of menin-MLL interaction” (Janssen Pharmaceutica NV, priority 2016, dated 2022).

Assay [1] concerns the target T1, terbium chelate-labeled menin / FITC-MBM1 peptide (Menin/MLL) (Homo sapiens, UniProt O00255, T541A).
T1 construct: Menin (a. a. l-610-6×his tag) was labeled with terbium cryptate as follows
T1 sequence (O00255 with tags, fused parts or gaps T541A): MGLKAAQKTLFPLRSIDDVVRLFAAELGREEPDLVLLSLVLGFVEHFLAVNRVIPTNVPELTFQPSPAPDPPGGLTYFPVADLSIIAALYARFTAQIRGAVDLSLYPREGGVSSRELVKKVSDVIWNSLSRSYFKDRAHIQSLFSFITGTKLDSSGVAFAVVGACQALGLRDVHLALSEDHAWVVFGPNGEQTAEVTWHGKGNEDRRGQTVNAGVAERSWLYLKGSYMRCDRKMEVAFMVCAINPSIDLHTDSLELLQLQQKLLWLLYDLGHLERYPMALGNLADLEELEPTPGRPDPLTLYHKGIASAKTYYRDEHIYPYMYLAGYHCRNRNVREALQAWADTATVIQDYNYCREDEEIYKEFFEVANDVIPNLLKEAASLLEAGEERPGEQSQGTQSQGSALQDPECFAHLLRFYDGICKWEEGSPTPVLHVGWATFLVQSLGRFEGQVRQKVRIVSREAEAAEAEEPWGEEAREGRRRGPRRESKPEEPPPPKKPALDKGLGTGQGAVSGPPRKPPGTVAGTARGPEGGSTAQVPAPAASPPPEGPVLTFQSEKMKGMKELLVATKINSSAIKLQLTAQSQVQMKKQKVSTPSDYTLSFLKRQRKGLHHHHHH
Description: Menin/MLL homogenous time-resolved fluorescence (HTRF) assay. The settings on record: read-out: (2) Menin HTRF assay (IC50 (nM)). Type of assay: binding. How it is done: 2) Menin/MLL Homogenous Time-Resolved Fluorescence (HTRF) Assay
To an untreated, white 384-well microtiter plate was added 40 nL 200× test compound in DMSO and 4 μL 2× terbium chelate-labeled menin (vide infra for preparation) in assay buffer (40 mM Tris .HCl, pH 7.5, 50 mM NaCl, 1 mM DTT and 0.05% Pluronic F-127). After incubation of test compound and terbium chelate-labeled menin for 5 min at ambient temperature, 4 μL 2×FITC-MBM1 peptide (FITC-P-alanine-SARWRFPARPGT-NH2) in assay buffer was added, the microtiter plate centrifuged at 1000 rpm for 1 min and the assay mixtures incubated for 15 min at ambient temperature. The relative amount of menin ⋅FITC-MBM1 complex present in an assay mixture is determined by measuring the homogenous time-resolved fluorescence (HTRF) of the terbium/FITC donor/acceptor fluorphore pair using a BMG Pherastar plate reader (ex. 337 nm/terbium cm. 490 nm/FITC cm. 520 nm) at ambient temperature. The degree of fluorescence resonance energy transfer (the HTRF value) is expressed as the ratio of the fluorescence emission intensities of the FITC and terbium fluorophores (P^m 520 nm//F^em 490 nm). The final concentrations of reagents in the binding assay are 100 pM terbium chelate-labeled menin, 75 nM FITC-MBM1 peptide and 0.5%) DMSO in assay buffer. Dose-response titrations of test compounds are conducted using an 11 point, three-fold serial dilution scheme, starting typically at 25 μM.
Compound potencies were determined by first calculating % inhibition at each compound concentration according to equation 1: % inhibition=((HC−LC)−(HTRF^compound−LC))/(HC−LC))*100 (Eqn 1)
Where LC and HC are the HTRF values of the assay in the presence or absence of a saturating concentration of a compound that competes with FITC-MBM1 for binding to menin, and HTRF^compound is the measured HTRF value in the presence of the test compound. HC and LC HTRF values represent an average of at least 16 replicates per plate.
Where Bottom and Top are the lower and upper asymptotes of the dose-response curve, respectively, IC50 is the concentration of compound that yields 50% inhibition of signal and h is the Hill coefficient.
Preparation of Terbium cryptate labeling of Menin: Menin (a. a. l-610-6×his tag) was labeled with terbium cryptate as follows. 2 mg of Menin was buffer exchanged into 1× phosphate buffered saline. 16 uM Menin was incubated with 4-fold molar excess NHS-terbium cryptate (Cisbio Bioassays, Bedford, Mass.) for 2 hours at room temperature. The labeled protein was purified away from free label by running the reaction over a Superdex 200 Increase 10/300 GL column at 0.75 ml/min. Peak fractions were collected, aliquoted and frozen at −80° C.

The subject of the next assay is MV-4-1 1 cells (MLL-AF4). The experiment in a line: Proliferation assay (spheroid-like growth, 8 d, live-cell imaging), MV-4-11. The settings on record: Homo sapiens, MV4-11, 192 h, MV-4-11 cells, absolute IC50 from AUC of confluence, read-out: (3) Spheroid assay MV-4-11 (IC50 (μM)). The format is cell-based, human. How it is done: The anti-proliferative effect of menin/MLL protein/protein interaction inhibitor test compounds was assessed in human leukemia cell lines. The cell lines MV-4-1 1 and MOLM14 harbor MEL translocations and express the MEL fusion proteins MLL-AF4 and MLL-AF9, respectively, as well as the wildtype protein from the second allele. […] K562 was used as a control cell line containing two MLL wildtype alleles in order to exclude compounds that display general cytotoxic effects.
MV-4-1 1 and MOLM14 were cultured in RPMI-1640 (Sigma Aldrich) supplemented with 10% fetal bovine serum (HyClone), 2 mM L-glutamine (Sigma Aldrich) and 50 μg/ml gentamycin (Gibco). K562 were propagated in RPMI-1640 (Sigma Aldrich) supplemented with 20% fetal bovine serum (HyClone), 2 mM L-glutamine (Sigma Aldrich) and 50 μg/ml gentamycin (Gibco).
In order to assess the anti-proliferative effects, 1,500 MV-4-1 1, 300 MOLM14 or 750 K562 cells were seeded in 200 μl media per well in 96-well round bottom, ultra-low attachment plates (Costar, catalogue number 7007). Cell seeding numbers were chosen based on growth curves to ensure linear growth throughout the experiment. Test compounds were added at different concentrations and the DMSO content was normalized to 0.3%>. Cells were incubated for 8d at 37° C. and 5% C02. Spheroid like growth was monitored in real-time by live-cell imaging (IncuCyteZOOM, Essenbio, 4× objective) acquiring one image every four hours for 8d. Confluence (%) as a measure of spheroid size was determined using an integrated analysis tool.
In order to determine the cumulative effect of the test compounds over time, the area under the curve (AUC) in a plot of confluence against time was calculated. Confluence at the beginning of the experiment (t=0) was used as baseline for the AUC calculation.
Absolute IC50 values were calculated according to the following procedure: % Control=(AUC sample/AUC control)*100 AUC control=mean AUC of control values(cells without compound/DMSO as vehicle control)
A non-linear curve fit was applied using the least squares (ordinary) fit method to the plot of % control versus compound concentration. Based on this, the absolute IC50 value (half maximal inhibitory concentration of the test compound causing an anti-proliferative effect of 50% relative to the vehicle control) was calculated.

With `Cn1cc(CNC2CCCN(c3ncnc4sc(CC(F)(F)F)cc34)CC2)cn1` (racemic) [Compound 11], the IC50 in assay [1] turned out to be 69 nM; in the assay with MV-4-1 1 cells (MLL-AF4), 2 µM. Turning to `Cc1ccc(CN[C@@H]2CCCN(c3ncnc4sc(CC(F)(F)F)cc34)CC2)c(C)c1` (single isomer, unassigned) [Compound 9A], the IC50 in assay [1] came to 548 nM. For the compound `Cn1cc(CNC2CCCN(c3ncnc4sc(CC(F)(F)F)cc34)CC2)cn1` (single isomer, unassigned) [Compound 11B], the IC50 in assay [1] was 1470 nM. As for `CC(C)N[C@@H]1CCCN(c2ncnc3sc(CC(F)(F)F)cc23)CC1` (single isomer, unassigned) [Compound 13A], the IC50 in assay [1] was found to be 5270 nM. `CC(C)NC1CCCN(c2ncnc3sc(CC(F)(F)F)cc23)CC1` (single isomer, unassigned) [Compound 13B]: the IC50 in assay [1] was 2460 nM. As for `FC(F)(F)Cc1cc2c(N3CCC[C@@H](NCc4cn[nH]c4)CC3)ncnc2s1` (single isomer, unassigned) [Compound 26], in assay [1], the IC50 worked out at 27 nM.

For the compound `CC(C)[C@H](N[C@H]1CCCN(c2ncnc3sc(CC(F)(F)F)cc23)CC1)C1CNC1` (single isomer, unassigned) [Compound 32], in assay [1], the IC50 amounted to 758 nM. The same measure, in the same setting: the figure for `CC(C)[C@@H](N[C@@H]1CCCN(c2ncnc3sc(CC(F)(F)F)cc23)CC1)C1CNC1` (single isomer, unassigned) [Compound 35] is 1010 nM; for `C[C@@H](N[C@@H]1CCCN(c2ncnc3sc(CC(F)(F)F)cc23)CC1)c1cnn(C)c1` (single isomer, unassigned) [Compound 54A] it is 11900 nM. Take `C[C@H](N[C@@H]1CCCN(c2ncnc3sc(CC(F)(F)F)cc23)CC1)c1cnn(C)c1` (single isomer, unassigned) [Compound 54B]: the IC50 in assay [1] was 13200 nM.

As for `C[C@H](N[C@H]1CCCN(c2ncnc3sc(CC(F)(F)F)cc23)CC1)c1cnn(C)c1` (single isomer, unassigned) [Compound 54C], in assay [1], the IC50 was 1490 nM. Consider `C[C@@H](N[C@H]1CCCN(c2ncnc3sc(CC(F)(F)F)cc23)CC1)c1cnn(C)c1` (single isomer, unassigned) [Compound 54D], for which the IC50 in assay [1] was determined as 6760 nM. Same read-out and setting: the figure for `CC(C)CN(Cc1cnn(C)c1)[C@@H]1CCCN(c2ncnc3sc(CC(F)(F)F)cc23)CC1` (single isomer, unassigned) [Compound 58A] is 1550 nM; for `CC(C)CN(Cc1cnn(C)c1)[C@H]1CCCN(c2ncnc3sc(CC(F)(F)F)cc23)CC1` (single isomer, unassigned) [Compound 58B] it is 888 nM. As to `FC(F)(F)Cc1cc2c(N3CCC[C@@H](N(Cc4ccccc4)C4COC4)CC3)ncnc2s1` (single isomer, unassigned) [Compound 59A], the IC50 in assay [1] turned out to be 709 nM. The same measure, in the same setting: the figure for `FC(F)(F)Cc1cc2c(N3CCC[C@H](N(Cc4ccccc4)C4COC4)CC3)ncnc2s1` (single isomer, unassigned) [Compound 59B] is 1150 nM; for `Cn1ncc2c1CCC[C@H]2N[C@@H]1CCCN(c2ncnc3sc(CC(F)(F)F)cc23)CC1` (single isomer, unassigned) [Compound 65A] it is 3500 nM. For the compound `Cn1cc2c(n1)CCC[C@H]2N[C@@H]1CCCN(c2ncnc3sc(CC(F)(F)F)cc23)CC1` (single isomer, unassigned) [Compound 66A], the IC50 in assay [1] stood at 7440 nM.

In the case of `Cn1cc2c(n1)CCC[C@H]2N[C@H]1CCCN(c2ncnc3sc(CC(F)(F)F)cc23)CC1` (single isomer, unassigned) [Compound 66C], the IC50 in assay [1] was determined as 5380 nM. Same read-out and setting: to `Cn1cc2c(n1)CCC[C@@H]2N[C@H]1CCCN(c2ncnc3sc(CC(F)(F)F)cc23)CC1` (single isomer, unassigned) [Compound 66D] belongs 880 nM. Take `C[C@@H]1CCN(c2ncnc3sc(CC(F)(F)F)cc23)CC[C@@H]1NCc1ccccc1` (single isomer, unassigned) [Compound 68B]: the IC50 in assay [1] came to 522 nM. The same measure, in the same setting: to `O=C(NC1CCCN(c2ncnc3sc(CC(F)(F)F)cc23)CC1)[C@H]1CC2(CC2)CN1` (stereo partly shown) [Compound 10A] belongs 1530 nM. Still for that read-out and setting: the figure for `CC(C)[C@@H](CO)N[C@@H]1CCCN(c2ncnc3sc(CC(F)(F)F)cc23)CC1` [Compound 14A] is 4470 nM; for `CC(C)[C@@H](CO)N[C@H]1CCCN(c2ncnc3sc(CC(F)(F)F)cc23)CC1` [Compound 14B] it is 767 nM. The same measure, in the same setting: the figure for `CNCCN(Cc1cnn(C)c1)C1CCCN(c2ncnc3sc(CC(F)(F)F)cc23)CC1` (stereo not shown) [Compound 39] is 852 nM; for `CNC(=O)[C@@H](NC1CCCN(c2ncnc3sc(CC(F)(F)F)cc23)CC1)C(C)C` (stereo partly shown) [Compound 52] it is 20800 nM.

With `FC(F)(F)Cc1cc2c(N3CCCC(NCC4CCOCC4)CC3)ncnc2s1` (stereo not shown) [Compound 55], the IC50 in assay [1] was 227 nM. Same read-out and setting: the figure for `CN(C)CCCNC1CCCN(c2ncnc3sc(CC(F)(F)F)cc23)CC1` (stereo not shown) [Compound 56] is 724 nM; for `CN(C)CCCCN(Cc1cnn(C)c1)C1CCCN(c2ncnc3sc(CC(F)(F)F)cc23)CC1` (stereo not shown) [Compound 61] it is 181 nM. Same read-out and setting: to `CN(C)CCCN(Cc1cnn(C)c1)C1CCCN(c2ncnc3sc(CC(F)(F)F)cc23)CC1` (stereo not shown) [Compound 63] belongs 369 nM; to `Cn1ncc2c1CCC[C@H]2N[C@H]1CCCN(c2ncnc3sc(CC(F)(F)F)cc23)CC1` [Compound 65C], 686 nM. In the case of `Cn1ncc2c1CCC[C@@H]2N[C@H]1CCCN(c2ncnc3sc(CC(F)(F)F)cc23)CC1` [Compound 65D], the IC50 in assay [1] turned out to be 8690 nM.

For the compound `FC(F)(F)Cc1cc2c(N3CCCC(NCc4ccncn4)CC3)ncnc2s1` (stereo not shown) [Compound 69], in assay [1], the IC50 was 598 nM.
